# Experiments:
# [1] = test system: ERK1/2 phosphorylation in 4T1 tumours; experiment: Pharmacodynamics in 4T1 tumours, ERK1/2 phosphorylation; conditions: i.v., AL776 40 mg/kg, gefitinib + dasatinib 20 mg/kg each
# Experimental: Mice were implanted with 4T1 mammary tumour cells, 15 million cells/flank (suspended in 200 μL PBS), subcutaneously.
# Mice were sacrificed 1h or 24h after treatment and their tumours were collected and snap frozen at -80°C for further analysis using western blots. Tumours were crushed using a mortar/pestle chilled using liquid nitrogen and lysed with RIPA buffer diluted to a 1X concentration and supplemented with 1mM PMSF (Cell Signaling Technology, USA). Western blot analysis was carried out with the tumour samples, similar to the method described earlier.
# [2] = test system: MDA-MB-231 cells; experiment: Boyden chamber invasion assay, MDA-MB-231; format: cell-based, human; conditions: MDA-MB-231, concentration as low as 0.1 μM, 24h
# Experimental: The invasive property of MDA-MB-231 and 4T1 cells was determined using the Boyden-chamber invasion assay. Cells suspended in serum-free media were plated (120–150,000 cells/well) onto polycarbonate transwell inserts (8 μm pore size, BD Biosciences) coated with matrigel (6%) (BD Biosciences), separating the top and bottom chambers (50 μl/filter). […] The invasive property of cells was observed 24h after treatment by fixing cells in formalin and staining with 0.1% crystal violet (Sigma-Aldrich Canada Ltd). Cells attached on the upper surface of the insert (top chamber) were removed by gently scraping away with a cotton swab, whereas those that invaded onto the lower side of the insert were observed using a microscope (Leica DM IL inverted microscope, 10X). Images of five non-overlapping fields of invading cells were captured using the Leica DFC300FX camera and quantification was done using the Scion Image Analysis (3.53.0.0) software and ImageJ 1.46r software. The results were expressed in terms of percentage of invading cells relative to control and the bar graphs represent the average of three independent experiments.
smiles,measurement,setting,value
Cc1nc(Nc2ncc(C(=O)Nc3c(C)cccc3Cl)s2)cc(N2CCN(CCOC(=O)CCC(=O)OCCN(C)Cc3ccc(C(=O)Nc4ccc5ncnc(Nc6cccc(Cl)c6)c5c4)cc3)CC2)n1 [AL776],Inhibition of ERK1/2 phosphorylation in tumours,[1]; 1h post-administration,strongly inhibited
same,Inhibition of ERK1/2 phosphorylation in tumours,[1]; 24 h post-treatment,reversed
same,Effect on invasion,[2],strongly inhibited invasion

# Source: publication PMC4414309, “Target Modulation by a Kinase Inhibitor Engineered to Induce a Tandem Blockade of the Epidermal Growth Factor Receptor (EGFR) and c-Src: The Concept of Type III Combi-Targeting” (PLoS ONE, 2015)
